From patent US11458138B2 (Novartis AG, priority 2017, dated 2022)

Tests used:
LATS1 = LATS1 (Homo sapiens (Human), UniProt O95835); test: LATS1 biochemical assay (Table 1A, Compound Examples 1-290; method in the earlier part)
[1] = target: Human LATS2 kinase domain protein (Homo sapiens (Human), UniProt Q9NRM7); test: LATS2 Biochemical Caliper Assay (Compound Examples 1-290); conditions: 400 micromolar ATP
Procedure: Human LATS2 kinase domain protein was purchased from Carnabio (catalogue number 01-124), which harbors the catalytic domain of amino acids 553-1088, and was co-purified with human His-tagged MOBKL1A (NP_775-739). 5 microlitre of enzyme buffer, 100 nL of compounds and 5 microlitre of localising aid buffer were added into 384-well plates. […] The plates were incubated at 25° C. for 3 hours. 40 microlitre of stop buffer with 25 mM EDTA (NanoSyn) was added to each well to terminate the reaction. Localising aids and products were separated electrophoretically using the microfluidic-based Caliper Labchip 3000 Drug Discovery System (Caliper Life Sciences). Plates were read using blue laser excitation and green fluorescence detection and quantified by fluorescence intensity.

[2] = test system: hepatic progenitor cells (HPC); test: Mouse Hepatic Progenitor Cell Proliferation Assay; assay type: cell-based; conditions: 96 h, mean number of nuclei per organoid, 4 days
Procedure: The progenitor cells were isolated from C57Bl/6 wild type mice and expanded as described (Lu, W. Y. et al., Nat. Cell Biol. 17, 971-983 (2015)). Cells are stocked in liquid nitrogen, thawed on need and tested using the following protocol: HPC are harvested from their collagen I coated culture vessel (Corning; cat. Number 354487), counted and assessed for viability using a CEDEX cell counter (Roche). After centrifugation, 12 million cells are re-suspended in 2 ml of William's E Medium (Life Technologies; cat. Number 22551089) supplemented with 10% Fetal Bovine Serum (Amimed; cat. Number 2-01F10-I); 1% Penicillin/Streptomycin (Sigma; cat. Number 15140-122); 17.6 mM of NaHCO3 (Sigma; cat. Number S8761); 20 mM HEPES (Gibco; cat. Number H3375); 10 mM Nicotinamide (Sigma; cat. Number N0636-100); 14 mM glucose (Sigma; cat. Number G7021); 1 mM Sodium Pyruvate (Sigma; cat. Number TMS-005); Insulin Transferrin Selenium (ITS) diluted 100 times from stock solution (Sigma; cat. Number 13148); 100 nM Dexamethasone (Sigma; cat. Number D4902); 0.2 mM ascorbic acid (Sigma; cat. Number A7506-100G); 10 ng/ml recombinant human IL-6 (Preprotech; cat. Number 200-06); 10 ng/ml murine HGF (Preprotech; cat. Number 315-23; Lot. 0711S527); 10 ng/ml murine EGF (Preprotech; cat. Number 315-09; Lot. 0217179-1). Six milliliters of Matrigel (Corning; cat. Number 354277; Lot: 5187006) are added to the cell/media solution, thus the final cell concentration is 1.5 million HPC per milliliter, in 25% culture medium and 75% Matrigel. Five microliter (p1) of the cell/Matrigel suspension are transferred in each well of the clear bottom 96 well assay plate (Corning; cat. Number 356649) using the Star dispenser (Hamilton). […]
Plates are imaged with the CV7000 imager (Yokogawa) at a 10 fold magnification using the bright field lamp (lamp power: 10%; exposure time: 20 ms) and the 405 nanometer laser (laser power: 100%; exposure time 200 ms). Four different images per well were acquired and analyzed with the Yokogawa image analysis software (YAS). […]

[3] = test system: Phospho-YAP (SER127) in HaCaT cells; test: pYAP HTRF Assay (HaCaT Cells); assay type: cell-based, human; conditions: Homo sapiens, 2 hours
In short: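 Phospho-YAP (Ser127) was measured by HTRF (665 nm/620 nm ratio) in HaCaT cells. Cells were grown 48 hours at 37° C at 5500 cells/well, exposed to compound for 2 hours, and incubated with detection reagents for 20 hrs at room temperature.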

[4] = test system: YAP nuclear translocation in HaCaT cells; test: YAP Translocation Assay (HaCaT Cells); assay type: cell-based, human; conditions: Homo sapiens, 24 hours
In short: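 HaCaT cells (20,000/well) in DMEM + 10% FBS were plated overnight at 37° C, then exposed to compound for 24 h at 37° C. Cells were fixed with PFA, permeabilized with 0.1% Triton/1.5% BSA and imaged by high-content imaging.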

[5] = test system: Phospho-YAP (Ser127) in JHH-5 cells; test: pYAP HTRF Assay (JHH-5 cells); assay type: cell-based; conditions: 2 hours
In short: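 Phospho-YAP read by HTRF (665 nm/620 nm ×10000) in lysates after overnight 18 h antibody incubation at room temperature. Compound treatment lasted 2 h at 37 °C, on JHH-5 cells plated 24 h earlier at 24000 per well in William's E medium with 10% FBS.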

limbal stem cells (LSCs) = test: Differentiation of expanded LSCs into corneal epithelium cells (p63alpha / keratin 12); assay type: cell-based, human; conditions: transferred to conditions that enable differentiation
Source text: Shown are views where the transition from the p63alpha-positive cell identity to the keratin-12 identity are occurring.
These characteristics can be observed by immunohistochemistry or FACS.

rabbit corneal surface = test: Rabbit model of limbal stem cell deficiency, transplantation of expanded LSCs; assay type: in vivo; conditions: LSCs expanded in medium comprising the compound, combined with GelMA, delivered via contact lens
Source text: FIG. 7B: Arrow is pointing to absence of keratin 19 staining. […] FIG. 7C: Arrow is pointing to absence of keratin-12 staining. […] FIG. 7D: Arrow is pointing to areas of positive keratin-19 staining.

[6] = target: Human LATS1 kinase domain protein (Homo sapiens (Human), UniProt O95835); test: LATS1 Biochemical Caliper Assay (Compound Examples 291-335); conditions: Caliper EZ Reader
Procedure: The LATS1 biochemical Caliper assay was performed as following.
Human LATS1 kinase domain protein was purchased from Carnabio (catalogue number 01-123; lot 15CBS-0098D). Human LATS1, catalytic domain [589-1130(end) amino acids of accession number NP_004681.1] was co-expressed as N-terminal GST-fusion protein (90 kDa) with human His-tagged MOBKL1A [1-216(end) amino acids of accession number NP_775739.1] using baculovirus expression system. GST-LATS1 was purified by using glutathione sepharose chromatography. The substrate (Fluo-SGKtide; Peptide for LATS1; lot BS-41067) has the following sequence: 5-Fluo-Nva-[…]-amide (SEQ ID NO: 27) x TFA and was purchased from Biosyntan.
The reaction is performed in reaction buffer containing 50 mM Hepes pH 7,5; 0.02% Tween20; 0.02% BSA; 1 mM DTT; 10 uM Na3VO4 and 10 mM beta-Glycerolphosphat and fresh added 1 mM MgCl2 and qsp H2O.
The substrate solution (2× conc.) in Reaction Buffer contains 300 μM ATP and 4 μM Fluo-SGKtide.
The kinase solution (2× conc.) in Reaction Buffer contains 20 nM LATS1 kinase. 4.5 μL of 2× conc. Kinase solution, 50 nL of 1.8 mM compounds and 4.5 μL of substrate solution were added into 384-well plates black small volume from Greiner and incubated at 32° C. for 1 hour. 15 μL of stop buffer containing 100 mM Hepes pH 7,5; 5% DMSO; 0.1% Coating reagent; 10 mM EDTA and 0.02% Brij35 and qsp H2O to each well to terminate the reaction.
Substrates and products were electrophoretically separated using the microfluidic-based Caliper EZ Reader System (Caliper Life Sciences) using a 12 sipper chip (cat 760404). The separation takes place in Coating Buffer (idem Stop buffer) and containing 0.1% Coating reagent CR3 and 0.5% coating reagent CR8 (Perkin Elmer).
Plates were read using a LED with an excitation at 488 nm and a detection at 520 nm to 5 quantify the fluorescence intensity.

[7] = test system: human limbal stem cells (LSCs); test: Human limbal stem cell population expansion: expansion factor; assay type: cell-based; conditions: 10 micromolar, XVIVO15 medium, two passages, ratio of expanded to seeded cells
Procedure: (§1) Cells were cultured at 37° C. in 5% CO2.
(§2) For each compound, two sets of cultures were generated. A first set of cultures was fixed in 4% PFA for 20 minutes at room temperature after cells isolated from the cornea had attached to the cell culture dish (typically 24 h after cell plating). A second set of cultures was fixed in 4% PFA for 20 minutes at room temperature after being cultured for two passages. Cells were passaged when they reached 90-100% confluence.
To evaluate cell expansion ratios, nuclei were counted using a Zeiss LSM 880 confocal microscope. The expansion factor was then determined by calculating the ratio of the expanded population of cells to population of seeded cells.

[8] = test system: human limbal stem cells (LSCs); test: Human limbal stem cell population expansion: percentage of p63alpha-positive cells; assay type: cell-based; conditions: 10 micromolar, XVIVO15 medium
Procedure: as §1, §2
In order to observe that the expanded cell population expressed p63alpha, this was measured by immunohistochemistry as follows. The fixed cell cultures were permeabilized and blocked in a blocking solution of 0.3% Triton X-100 (Sigma-Aldrich) and 3% donkey serum in PBS for 30 minutes. Cells were then labeled with primary antibody in the blocking solution for 12 hours at 4° C. Primary antibody used was p63alpha from Cell Signalling. Samples were washed in PBS three times and donkey-raised secondary antibody Alexa Fluor 488 (Molecular Probes) at 1:500 dilution were applied for 30 minutes at room temperature. Cell nuclei were then labeled in a solution of 0.5 micromolar of Sytox Orange (ThermoFisher) in PBS for 5 minutes at room temperature.
To evaluate the percentage of p63alpha-positive cells, the number of cells labeled by the anti-p63alpha antibody was counted and the total number of cells was determined by counting the number of nuclei stained by Sytox Orange. The proportion of p63alpha-positive cells was then determined by calculating the percentage of Sytox-orange-positive nuclei that also expressed p63alpha.

[9] = test system: human corneal endothelial cells (CECs); test: Human corneal endothelial cell population expansion: fold cell expansion; assay type: cell-based; conditions: 10 micromolar compound, X-VIVO15 medium, 10 days, ratio of expanded to seeded cells
Procedure: as §1
(§3) For each compound, two sets of cultures were generated. A first set of cultures was fixed in 4% PFA for 20 minutes at room temperature after cells isolated from the cornea had attached to the cell culture dish (typically 24 h after cell plating). A second set of cultures was fixed in 4% PFA for 20 minutes at room temperature 10 days after the first one.
(§4) To measure cell density in all fixed cultures, the number of nuclei stained with Sytox Orange (ThermoFisher) were counted per surface area as follows: fixed cell cultures fixed were permeabilized in a solution of 0.3% Triton X-100 (Sigma-Aldrich). Cells were then labeled in a solution of 0.5 micromolar of Sytox Orange in PBS for 5 minutes at room temperature. Nuclei were counted under a Zeiss epifluorescence microscope. The expansion factor was then determined by calculating the ratio of the expanded population of cells to population of seeded cells.

[10] = test system: human corneal endothelial cells (CECs); test: Human corneal endothelial cell population expansion: endothelial cell density in vitro; assay type: cell-based; conditions: 10 micromolar compound, X-VIVO15 medium, 10 days
Procedure: as §1, §3, §4

Chain of LATS1 (O95835 whole entry, looked up, the tested form may be a part): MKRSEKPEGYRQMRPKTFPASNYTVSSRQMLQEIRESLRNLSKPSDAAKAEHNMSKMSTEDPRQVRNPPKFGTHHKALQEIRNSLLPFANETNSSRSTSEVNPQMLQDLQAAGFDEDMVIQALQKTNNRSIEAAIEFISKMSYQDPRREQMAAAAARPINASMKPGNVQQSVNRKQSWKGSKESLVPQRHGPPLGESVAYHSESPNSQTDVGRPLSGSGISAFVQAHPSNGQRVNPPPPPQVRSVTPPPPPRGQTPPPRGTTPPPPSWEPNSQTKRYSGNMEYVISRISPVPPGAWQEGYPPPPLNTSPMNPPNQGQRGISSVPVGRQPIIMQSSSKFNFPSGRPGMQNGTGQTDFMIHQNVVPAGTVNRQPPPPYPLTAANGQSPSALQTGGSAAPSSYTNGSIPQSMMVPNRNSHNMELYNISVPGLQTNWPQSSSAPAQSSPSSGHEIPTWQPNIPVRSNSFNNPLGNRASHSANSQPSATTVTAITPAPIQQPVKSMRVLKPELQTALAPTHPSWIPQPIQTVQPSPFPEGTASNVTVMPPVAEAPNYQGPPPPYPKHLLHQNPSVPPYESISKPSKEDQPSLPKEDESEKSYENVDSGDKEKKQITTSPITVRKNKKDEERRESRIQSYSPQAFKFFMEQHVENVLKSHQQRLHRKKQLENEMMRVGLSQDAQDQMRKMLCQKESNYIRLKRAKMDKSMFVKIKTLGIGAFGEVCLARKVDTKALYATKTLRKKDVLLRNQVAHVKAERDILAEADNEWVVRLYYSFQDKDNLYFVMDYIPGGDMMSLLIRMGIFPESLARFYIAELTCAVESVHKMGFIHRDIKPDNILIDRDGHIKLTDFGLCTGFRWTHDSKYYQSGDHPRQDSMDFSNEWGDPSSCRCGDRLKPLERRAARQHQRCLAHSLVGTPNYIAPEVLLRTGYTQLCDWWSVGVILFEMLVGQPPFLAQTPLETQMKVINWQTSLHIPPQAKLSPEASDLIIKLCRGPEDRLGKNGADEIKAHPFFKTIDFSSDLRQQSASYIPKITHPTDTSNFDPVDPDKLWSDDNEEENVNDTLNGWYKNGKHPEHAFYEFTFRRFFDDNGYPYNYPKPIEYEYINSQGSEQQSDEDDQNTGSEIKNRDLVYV
Chain of LATS1 (Q7L9L4 whole entry partner, looked up, the tested form may be a part): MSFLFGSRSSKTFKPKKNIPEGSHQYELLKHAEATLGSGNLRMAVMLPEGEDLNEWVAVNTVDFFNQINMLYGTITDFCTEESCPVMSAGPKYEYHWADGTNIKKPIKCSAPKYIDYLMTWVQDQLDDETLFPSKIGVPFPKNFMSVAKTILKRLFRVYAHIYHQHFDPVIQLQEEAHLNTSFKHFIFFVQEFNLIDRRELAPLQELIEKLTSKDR
Chain of Human LATS2 kinase domain protein (Q9NRM7 553-1088): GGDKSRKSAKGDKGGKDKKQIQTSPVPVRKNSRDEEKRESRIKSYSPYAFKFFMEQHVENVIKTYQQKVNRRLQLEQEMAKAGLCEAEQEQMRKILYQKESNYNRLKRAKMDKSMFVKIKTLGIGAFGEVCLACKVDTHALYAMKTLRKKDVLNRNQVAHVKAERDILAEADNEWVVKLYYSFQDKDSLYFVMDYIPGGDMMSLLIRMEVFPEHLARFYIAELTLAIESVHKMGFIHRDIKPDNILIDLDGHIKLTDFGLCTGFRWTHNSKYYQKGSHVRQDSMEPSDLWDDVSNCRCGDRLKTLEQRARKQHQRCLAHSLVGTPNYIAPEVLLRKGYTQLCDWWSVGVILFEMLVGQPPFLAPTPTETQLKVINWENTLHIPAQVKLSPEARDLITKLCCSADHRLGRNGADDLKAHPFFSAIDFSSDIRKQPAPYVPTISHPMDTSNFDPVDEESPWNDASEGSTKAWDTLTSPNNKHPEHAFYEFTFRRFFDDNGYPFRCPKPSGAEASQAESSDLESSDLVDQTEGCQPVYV
Chain of Human LATS2 kinase domain protein (Q7L9L4 whole entry partner, the tested form may be a part): as the sequence (Q7L9L4 whole entry partner, looked up, the tested form may be a part) above
Chain of Human LATS1 kinase domain protein (O95835 whole entry, looked up, the tested form may be a part): as the sequence (O95835 whole entry, looked up, the tested form may be a part) above
Chain of Human LATS1 kinase domain protein (Q7L9L4 whole entry partner, looked up, the tested form may be a part): as the sequence (Q7L9L4 whole entry partner, looked up, the tested form may be a part) above

CC(C)(Nc1nc(-c2ccncc2)nc2cnccc12)C(F)(F)F [Example 58, 2-(pyridin-4-yl)-N-(1,1,1-trifluoro-2-methylpropan-2-yl)pyrido[3,4-d]pyrimidin-4-amine]
IC50 (LATS1): 0.001 µM
IC50 [1]: 0.17 µM
EC50 [2]: 0.84 µM
IC50 [3]: 0.185 µM
EC50 [4]: 0.302 µM
IC50 [5]: 0.6 µM

CC(C)(O)COCC(C)(C)Nc1nc(-c2ccncc2)nc2cnccc12 [Example 12, 2-methyl-1-(2-methyl-2-{[2-(pyridin-4-yl)pyrido[3,4-d]pyrimidin-4-yl]amino}propoxy)propan-2-ol]
differentiation of expanded LSCs into corneal epithelium cells (keratin 12) (limbal stem cells (LSCs)): can differentiate into corneal epithelium cells
conjunctivalization (keratin-19) in transplanted eye (rabbit corneal surface): prevented conjunctivalization by keratin-19-positive conjunctival cells
corneal epithelium regeneration (keratin-12) in transplanted eye (rabbit corneal surface): lead to regeneration of a keratin-12-positive corneal epithelium
IC50 (LATS1): 0.004 µM
IC50 [1]: 0.015 µM
IC50 [3]: 1.15 µM
EC50 [4]: 1.75 µM
IC50 [5]: 2.9 µM

C[C@H](N(C)c1nc(-c2ccncc2)nc2cnccc12)C(F)(F)F [Example 48a, N-methyl-2-(pyridin-4-yl)-N-[(2S)-1,1,1-trifluoropropan-2-yl]pyrido[3,4-d]pyrimidin-4-amine]
EC50 [2]: 0.26 µM

CC1CNCCN1c1cc(-c2ccncc2)nc2cnccc12 (stereo not drawn) [Example 303, 4-(2-methylpiperazin-1-yl)-2-(pyridin-4-yl)-1,7-naphthyridine]
IC50 [6]: 0.0102 µM
EC50 [2]: > 20 µM
IC50 [5]: > 10 µM

FC(F)(F)C1(Nc2nc(-c3ccncc3)nc3cnccc23)CCC1 [Example 62, 2-(pyridin-4-yl)-N-[1-(trifluoromethyl)cyclobutyl]pyrido[3,4-d]pyrimidin-4-amine]
IC50 (LATS1): 0.001 µM
IC50 [1]: 0.002 µM
IC50 [3]: 0.04 µM
EC50 [4]: 0.538 µM
IC50 [5]: 0.6 µM
Expansion factor [7]: 1712
Percentage of p63a-positive cells [8]: 95%
Expansion factor (Fold Cell expansion) [9]: 402
Endothelial Cell density in vitro [10]: 3301 cells/mm^2
